Experiment [1] deals with T1, Glycogen phosphorylase, muscle form (Oryctolagus cuniculus, UniProt P00489).
T1 sequence (P00489 whole entry): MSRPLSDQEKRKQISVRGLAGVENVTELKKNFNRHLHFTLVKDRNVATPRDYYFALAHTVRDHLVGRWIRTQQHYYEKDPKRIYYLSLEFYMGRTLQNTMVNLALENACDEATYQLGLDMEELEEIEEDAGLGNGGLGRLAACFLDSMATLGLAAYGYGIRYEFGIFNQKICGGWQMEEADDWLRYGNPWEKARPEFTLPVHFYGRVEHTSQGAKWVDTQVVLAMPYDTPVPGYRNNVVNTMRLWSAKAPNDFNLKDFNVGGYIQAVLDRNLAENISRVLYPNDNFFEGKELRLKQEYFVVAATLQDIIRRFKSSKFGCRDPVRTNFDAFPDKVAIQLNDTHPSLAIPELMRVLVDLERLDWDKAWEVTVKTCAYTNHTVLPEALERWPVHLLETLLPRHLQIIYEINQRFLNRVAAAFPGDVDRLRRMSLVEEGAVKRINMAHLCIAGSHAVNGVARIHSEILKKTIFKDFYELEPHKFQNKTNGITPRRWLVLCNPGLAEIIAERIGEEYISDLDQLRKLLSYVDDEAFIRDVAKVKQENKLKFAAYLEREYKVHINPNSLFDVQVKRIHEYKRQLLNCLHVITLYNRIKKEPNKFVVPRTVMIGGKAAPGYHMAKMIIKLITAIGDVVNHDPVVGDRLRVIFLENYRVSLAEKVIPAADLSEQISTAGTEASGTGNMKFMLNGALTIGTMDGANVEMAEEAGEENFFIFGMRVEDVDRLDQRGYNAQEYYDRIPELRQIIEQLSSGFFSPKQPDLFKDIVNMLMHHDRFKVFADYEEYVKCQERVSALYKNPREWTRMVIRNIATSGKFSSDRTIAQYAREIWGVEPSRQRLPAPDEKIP

The target in experiment [2] is T2, Glycogen phosphorylase, muscle form (Oryctolagus cuniculus) (UniProt P00489).
T2 sequence (whole entry): T1 sequence (P00489 whole entry)
Kind of experiment: Inhibition of rabbit muscle glycogen phosphorylase b at 625 uM.

The structures appear in SMILES notation. The source made the active and inactive calls. No cut-off for these calls is given here.

The text below walks through data of ChEMBL document CHEMBL1152938, “Synthesis and structure-activity relationships of C-glycosylated oxadiazoles as inhibitors of glycogen phosphorylase” (Bioorg Med Chem, 2009).

Take `COc1ccc(-c2noc([C@@H]3O[C@H](CO)[C@@H](O)[C@H](O)[C@H]3O)n2)cc1`: affinity in experiment [1] was put at a Ki of 20.4 µM. Same read-out and setting: under `OC[C@H]1O[C@@H](c2nc(-c3ccc(O)cc3)no2)[C@H](O)[C@@H](O)[C@@H]1O` stands 19.4 µM.

Consider `O=[N+]([O-])c1ccc(-c2nnc([C@@H]3O[C@H](CO)[C@@H](O)[C@H](O)[C@H]3O)o2)cc1`, for which the inhibition result in experiment [2] is “inactive”. `OC[C@H]1O[C@@H](c2nc(-c3ccc4ccccc4c3)no2)[C@H](O)[C@@H](O)[C@@H]1O`: affinity in experiment [1] was put at a Ki of 2.4 µM.

In turn, `Nc1ccc(C(=O)NC(=O)N[C@@H]2O[C@H](CO)[C@@H](O)[C@H](O)[C@H]2O)cc1` had a Ki in experiment [1] of 6 µM. The same measure, in the same setting: the result for `OC[C@H]1O[C@@H](c2nc(-c3cccc4ccccc34)no2)[C@H](O)[C@@H](O)[C@@H]1O` reads 19 µM; that for `O=C(NC(=O)c1ccc(O)cc1)N[C@@H]1O[C@H](CO)[C@@H](O)[C@H](O)[C@H]1O`, 6.3 µM; that for `O=C(NC(=O)c1cccc2ccccc12)N[C@@H]1O[C@H](CO)[C@@H](O)[C@H](O)[C@H]1O`, 15 µM. For `OC[C@H]1O[C@@H](c2nc(-c3ccc(OCc4ccccc4)cc3)no2)[C@H](O)[C@@H](O)[C@@H]1O`, the inhibition entry in experiment [2] is “inactive”. In the case of `OC[C@H]1O[C@@H](c2nnc(-c3ccc(O)cc3)o2)[C@H](O)[C@@H](O)[C@@H]1O`, the inhibition result in experiment [2] was “inactive”.

`OC[C@H]1O[C@@H](c2nc(-c3ccc4c(c3)OCO4)no2)[C@H](O)[C@@H](O)[C@@H]1O` displayed an IC50 in experiment [1] of over 625 µM. In experiment [1], `Cc1ccc(C(=O)N[C@@H]2O[C@H](CO)[C@@H](O)[C@H](O)[C@H]2O)cc1` showed an IC50 of 4500 µM. The compound `OC[C@H]1O[C@@H](c2nnc(-c3ccc4ccccc4c3)o2)[C@H](O)[C@@H](O)[C@@H]1O` came in with an inhibition in experiment [2] of 10%.

As to `Nc1ccc(-c2nnc([C@@H]3O[C@H](CO)[C@@H](O)[C@H](O)[C@H]3O)o2)cc1`, the inhibition result in experiment [2] was “inactive”. The same measure, in the same setting: the result for `COc1ccc(-c2nnc([C@@H]3O[C@H](CO)[C@@H](O)[C@H](O)[C@H]3O)o2)cc1` reads “inactive”; that for `OC[C@H]1O[C@@H](c2nnc(-c3ccccc3)o2)[C@H](O)[C@@H](O)[C@@H]1O`, 10%. With `OC[C@H]1O[C@@H](c2noc(-c3ccc4ccccc4c3)n2)[C@H](O)[C@@H](O)[C@@H]1O`, in experiment [1], affinity was put at a Ki of 38 µM. In turn, `COc1ccc(-c2nc([C@@H]3O[C@H](CO)[C@@H](O)[C@H](O)[C@H]3O)no2)cc1` displayed a half-inhibitory concentration (IC50) in experiment [1] of 550 µM.

`O=[N+]([O-])c1ccc(-c2nc([C@@H]3O[C@H](CO)[C@@H](O)[C@H](O)[C@H]3O)no2)cc1`: in experiment [2], the inhibition entry was “inactive”. In the case of `O=[N+]([O-])c1ccc(-c2noc([C@@H]3O[C@H](CO)[C@@H](O)[C@H](O)[C@H]3O)n2)cc1`, in experiment [1], the IC50 stood at 650 µM. Take `Nc1ccc(-c2noc([C@@H]3O[C@H](CO)[C@@H](O)[C@H](O)[C@H]3O)n2)cc1`: in experiment [2], the inhibition amounted to 20%. Compound `Cc1ccc(C(=O)NC(=O)N[C@@H]2O[C@H](CO)[C@@H](O)[C@H](O)[C@H]2O)cc1` returned a Ki in experiment [1] of 2.3 µM. As to `Cc1nc([C@@H]2O[C@H](CO)[C@@H](O)[C@H](O)[C@H]2O)no1`, the inhibition entry in experiment [2] is “inactive”. On the same count and under the same terms, the result for `OC[C@H]1O[C@@H](c2nnc(-c3cccc4ccccc34)o2)[C@H](O)[C@@H](O)[C@@H]1O` reads 10%. In the case of `Cc1ccc(-c2noc([C@@H]3O[C@H](CO)[C@@H](O)[C@H](O)[C@H]3O)n2)cc1`, the Ki in experiment [1] amounted to 8.8 µM. As for `Cc1ccc(-c2nnc([C@@H]3O[C@H](CO)[C@@H](O)[C@H](O)[C@H]3O)o2)cc1`, in experiment [2], the inhibition entry is “inactive”. As for `Cc1ccc(-c2nc([C@@H]3O[C@H](CO)[C@@H](O)[C@H](O)[C@H]3O)no2)cc1`, the IC50 in experiment [1] was 350 µM.

`O=C(NC(=O)c1ccc([N+](=O)[O-])cc1)N[C@@H]1O[C@H](CO)[C@@H](O)[C@H](O)[C@H]1O`: in experiment [1], the Ki was 3.3 µM.

Take `OC[C@H]1O[C@@H](c2noc(-c3cccc4ccccc34)n2)[C@H](O)[C@@H](O)[C@@H]1O`: in experiment [2], the inhibition result was “inactive”. Turning to `OC[C@H]1O[C@@H](c2nc3ccccc3s2)[C@H](O)[C@@H](O)[C@@H]1O`, the inhibition constant (Ki) in experiment [1] was found to be 76 µM. In the case of `OC[C@H]1O[C@@H](c2noc(-c3ccccc3)n2)[C@H](O)[C@@H](O)[C@@H]1O`, the inhibition in experiment [2] was determined as 10%. Regarding `OC[C@H]1O[C@@H](c2nc(-c3ccccc3)no2)[C@H](O)[C@@H](O)[C@@H]1O`, the Ki in experiment [1] was 64 µM. The same measure, in the same setting: under `Cc1nnc(C2O[C@H](CO)[C@@H](O)[C@H](O)[C@H]2O)o1` (single isomer, unassigned) stands 145 µM.
